From publication PMC5725709, “PufQ regulates porphyrin flux at the haem/bacteriochlorophyll branchpoint of tetrapyrrole biosynthesis via interactions with ferrochelatase” (Molecular Microbiology, 2017)

Target: T1, FeCH (ferrochelatase) (Cereibacter sphaeroides, UniProt Q3IYK5, Y58H)
T1 construct: gene HemH; His-tagged, pET14b, E. coli Rosetta pLysS
Assay: spectrophotometric ferrochelatase assay (DIX consumption at […] nm, isosbestic reference […] nm)
Format: biochemical
Settings: 1 µM FeCH, 30 µM DIX, 100 µM CoCl2, 25 mM Tris pH 7.4, 0.15% Tween 80; active, substantially lower than wild type

T1 sequence (Q3IYK5 entry or part of it Y58H): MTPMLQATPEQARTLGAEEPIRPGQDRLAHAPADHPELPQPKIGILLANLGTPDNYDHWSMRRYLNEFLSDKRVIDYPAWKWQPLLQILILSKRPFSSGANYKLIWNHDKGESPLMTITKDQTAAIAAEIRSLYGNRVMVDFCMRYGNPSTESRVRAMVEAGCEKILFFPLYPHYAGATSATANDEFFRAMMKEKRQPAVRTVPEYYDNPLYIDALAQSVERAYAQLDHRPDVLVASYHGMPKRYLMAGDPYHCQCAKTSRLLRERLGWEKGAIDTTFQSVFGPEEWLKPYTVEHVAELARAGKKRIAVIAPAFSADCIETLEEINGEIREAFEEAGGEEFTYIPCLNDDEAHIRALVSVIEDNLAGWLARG

In the case of `CC1=C(CCC(=O)O)c2cc3nc(cc4[nH]c(cc4C)cc4[nH]c(cc1n2)cc4C)C(C)=C3CCC(=O)O` [deuteroporphyrin IX], the “spectrophotometric ferrochelatase assay (DIX consumption at 496 nm, isosbestic r)” value was “the ΔpufQ PSvar version of the FeCH protein is active”.
